Test results as given in US20020198315A1, “Salts of peptides with carboxy-terminated polyesters” (priority 1992, published 2002).

Assays:
[1] = Dissolution / solubility in dichloromethane; format: physicochemical
Protocol: To this solution was added trifluoroacetic acid (50 μl), and the mixture was stirred vigorously.
The drug solution was added to the copolymer solution and was mixed thoroughly. This mixture was then added dropwise to liquid nitrogen to freeze it as small beads. The solid material was freeze dried for two days using an Edwards high vacuum freeze drier, and the dried material was further dried at 50-55° C. in a vacuum oven for 24 hours.
The peptide known as Substance P, in the form of its acetate salt (ex Sigma, 2 mg) was added to dichloromethane (3 ml) and thoroughly agitated.
Lys^8-vasopressin acetate salt (2 mg, ex Sigma) was added to dichloromethane (3 ml) and agitated.
(i) Dichloromethane (4 ml) was added to a freeze-dried preparation of ZD6003 (39.72 mg).
A lactide/glycolide copolymer (75/25, 364.1 mg, Mw=16,800 by size exclusion chromatography, polydispersity=2.2, ex Boehringer Ingelheim) was added.

[2] = cited from earlier work

In the case of “[Het^−1, Arg^11, Ser^17,27,60,65] human G-CSF (granulocyte-colony stimulating factor) modified with polyethylene glycol 5000 [ZD6003]”, the “behaviour in dichloromethane (dissolves or not), in words” value [1] is reported as “opaque dispersion of drug in the solvent”.

In the case of `CC(C)C[C@H](NC(=O)[C@@H](COC(C)(C)C)NC(=O)[C@H](Cc1ccc(O)cc1)NC(=O)[C@H](CO)NC(=O)[C@H](Cc1c[nH]c2ccccc12)NC(=O)[C@H](Cc1cnc[nH]1)NC(=O)[C@@H]1CCC(=O)N1)C(=O)N[C@@H](CCCNC(=N)N)C(=O)N1CCC[C@H]1C(=O)NNC(N)=O` [Goserelin acetate], the “goserelin in benzyl benzoate supernatant, in words” value (40° C., stirred, aliquots after 2 and 9 Days, limit of detection 0.2 μg/ml) is reported as “No goserelin was detectable in either sample”, the “equilibrium solubility of goserelin in benzyl benzoate (estimated)” value (at 40° C.) is reported as “less than 0.2 μg/mg” and the “solubility in benzyl benzoate, in words” value (lipophilic solvents such as benzyl benzoate) is reported as “not soluble”.

In the case of `CC(C)C[C@H](NC(=O)[C@@H](COC(C)(C)C)NC(=O)[C@H](Cc1ccc(O)cc1)NC(=O)[C@H](CO)NC(=O)[C@H](Cc1c[nH]c2ccccc12)NC(=O)[C@H](Cc1cnc[nH]1)NC(=O)[C@@H]1CCC(=O)N1)C(=O)N[C@@H](CCCNC(=N)N)C(=O)N1CCC[C@H]1C(=O)NNC(N)=O` [goserelin, [D-Ser(Bu^t)^6, Azgly^10]-LHRH], the metabolic half-life [2] is given as 4 to 6 h.

In the case of Substance P, the “behaviour in dichloromethane (dissolves or not), in words” value [1] is reported as “showed no indication of dissolving”.

In the case of Lys^8-vasopressin acetate salt, the “behaviour in dichloromethane (dissolves or not), in words” value [1] is reported as “showed no indication of dissolving”.
